In ChEMBL document CHEMBL3885861, “Open TG-GATES”:

Species: Rattus norvegicus
Experiment: Open TG-GATES - Regimen: Single
Type: toxicity, organism-based, Sprague-Dawley
Parameters: regimen Single, gender Male, age 6 weeks
Settings: in vivo, po, route gavage; for gamma-GTP / ALP / AST / BUN / CRE / Ca / Cl / DBIL / GLC / IP / K / LDH / Na / PL / RALB / TBIL / TC / TG / TP: tissue Plasma; for KIDNEY_L / KIDNEY_R / KIDNEY_TOTAL: tissue Kidney; for LIVER: tissue Liver
[1] = 60 mg/kg, 3 h, tissue Blood, dose level Low
[2] = 60 mg/kg, 6 h, tissue Blood, dose level Low

SMILES: CC(=O)Nc1nnc(S(N)(=O)=O)s1 [ACETAZOLAMIDE]
- gamma-GTP (0 mg/kg, 24 h, dose level Control): 2.2 IU/L
- TERMINAL_BW (60 mg/kg, 3 h, dose level Low): 208.4 g
- APTT [1]: 22.2 s
- Bas [1]: 0%
- Eos [1]: 1%
- Fbg [1]: 313.4 mg/dL
- Ht [1]: 40.8%
- MCH [1]: 21.4 pg
- MCHC [1]: 32.1%
- MCV [1]: 66.9 fL
- Mono [1]: 1.6%
- PT [1]: 16.8 s
- Plat [1]: 125.7 x10_4/uL
- RBC [1]: 610.4 x10_4/ul
- Ret [1]: 8.6%
- WBC [1]: 69.8 x10_2/uL
- KIDNEY_L (60 mg/kg, 3 h, dose level Low): 0.9 g
- KIDNEY_R (60 mg/kg, 3 h, dose level Low): 1 g
- KIDNEY_TOTAL (60 mg/kg, 3 h, dose level Low): 1.9 g
- LIVER (60 mg/kg, 3 h, dose level Low): 9.5 g
- ALP (60 mg/kg, 3 h, dose level Low): 1527.8 IU/L
- AST (60 mg/kg, 3 h, dose level Low): 75.8 IU/L
- BUN (60 mg/kg, 3 h, dose level Low): 12.2 mg/dL
- CRE (60 mg/kg, 3 h, dose level Low): 0.2 mg/dL
- Ca (60 mg/kg, 3 h, dose level Low): 11.1 mg/dL
- Cl (60 mg/kg, 3 h, dose level Low): 111.6 meq/L
- DBIL (60 mg/kg, 3 h, dose level Low): 0 mg/dL
- GLC (60 mg/kg, 3 h, dose level Low): 184.6 mg/dL
- IP (60 mg/kg, 3 h, dose level Low): 9.6 mg/dL
- K (60 mg/kg, 3 h, dose level Low): 3.9 meq/L
- LDH (60 mg/kg, 3 h, dose level Low): 212.8 IU/L
- Na (60 mg/kg, 3 h, dose level Low): 141.4 meq/L
- PL (60 mg/kg, 3 h, dose level Low): 142.2 mg/dL
- RALB (60 mg/kg, 3 h, dose level Low): 3.4 g/dL
- TBIL (60 mg/kg, 3 h, dose level Low): 0.018 mg/dL
- TC (60 mg/kg, 3 h, dose level Low): 88 mg/dL
- TG (60 mg/kg, 3 h, dose level Low): 28.2 mg/dL
- TP (60 mg/kg, 3 h, dose level Low): 5.9 g/dL
- gamma-GTP (60 mg/kg, 3 h, dose level Low): 1.4 IU/L
- TERMINAL_BW (60 mg/kg, 6 h, dose level Low): 202.8 g
- APTT [2]: 23 s
- Bas [2]: 0%
- Eos [2]: 1%
- Fbg [2]: 336.6 mg/dL
- Ht [2]: 42.5%
- MCH [2]: 20.9 pg
- MCV [2]: 65.6 fL
- Mono [2]: 3%
- PT [2]: 16.8 s
- Plat [2]: 120.9 x10_4/uL
- RBC [2]: 648 x10_4/ul
- Ret [2]: 8.7%
- WBC [2]: 98.5 x10_2/uL
- KIDNEY_L (60 mg/kg, 6 h, dose level Low): 0.9 g
- KIDNEY_R (60 mg/kg, 6 h, dose level Low): 0.9 g
- KIDNEY_TOTAL (60 mg/kg, 6 h, dose level Low): 1.8 g
- LIVER (60 mg/kg, 6 h, dose level Low): 8.4 g
- ALP (60 mg/kg, 6 h, dose level Low): 1445.8 IU/L
- AST (60 mg/kg, 6 h, dose level Low): 72.8 IU/L
- BUN (60 mg/kg, 6 h, dose level Low): 11.8 mg/dL
- CRE (60 mg/kg, 6 h, dose level Low): 0.2 mg/dL
- Ca (60 mg/kg, 6 h, dose level Low): 11 mg/dL
- Cl (60 mg/kg, 6 h, dose level Low): 113 meq/L
- DBIL (60 mg/kg, 6 h, dose level Low): 0 mg/dL
- GLC (60 mg/kg, 6 h, dose level Low): 187.4 mg/dL
- IP (60 mg/kg, 6 h, dose level Low): 9.6 mg/dL
- K (60 mg/kg, 6 h, dose level Low): 4.2 meq/L
- LDH (60 mg/kg, 6 h, dose level Low): 177.4 IU/L
- Na (60 mg/kg, 6 h, dose level Low): 139.4 meq/L
- PL (60 mg/kg, 6 h, dose level Low): 138.2 mg/dL
- RALB (60 mg/kg, 6 h, dose level Low): 3.3 g/dL
- TBIL (60 mg/kg, 6 h, dose level Low): 0.024 mg/dL
- TC (60 mg/kg, 6 h, dose level Low): 83 mg/dL
- TG (60 mg/kg, 6 h, dose level Low): 27.2 mg/dL
- TP (60 mg/kg, 6 h, dose level Low): 5.9 g/dL
